The nature of data set [1]: Inhibition of Toxoplasma gondii CDPK1 Gly128Met mutant using syntide-2 peptide as substrate after 90 mins by kinase glo-luciferase assay. On the technique in general: Kinase-Glo measures the ATP left after a reaction by luminescence.
For data set [2], the system named is Toxoplasma gondii. Put plainly: microbe, parasite or virus in culture. Particulars: 44 h.
The target in data set [3] is Epidermal growth factor receptor (Homo sapiens, UniProt P00533). Put plainly: Inhibition of human EGFR using poly glu-Tyr as substrate after 30 mins.
Data set [4] addresses Proto-oncogene tyrosine-protein kinase Src (Homo sapiens, UniProt P12931).
A further data set concerns the target T1, Ephrin type-A receptor 3 (Homo sapiens, UniProt P29320).
T1 sequence (P29320 whole entry): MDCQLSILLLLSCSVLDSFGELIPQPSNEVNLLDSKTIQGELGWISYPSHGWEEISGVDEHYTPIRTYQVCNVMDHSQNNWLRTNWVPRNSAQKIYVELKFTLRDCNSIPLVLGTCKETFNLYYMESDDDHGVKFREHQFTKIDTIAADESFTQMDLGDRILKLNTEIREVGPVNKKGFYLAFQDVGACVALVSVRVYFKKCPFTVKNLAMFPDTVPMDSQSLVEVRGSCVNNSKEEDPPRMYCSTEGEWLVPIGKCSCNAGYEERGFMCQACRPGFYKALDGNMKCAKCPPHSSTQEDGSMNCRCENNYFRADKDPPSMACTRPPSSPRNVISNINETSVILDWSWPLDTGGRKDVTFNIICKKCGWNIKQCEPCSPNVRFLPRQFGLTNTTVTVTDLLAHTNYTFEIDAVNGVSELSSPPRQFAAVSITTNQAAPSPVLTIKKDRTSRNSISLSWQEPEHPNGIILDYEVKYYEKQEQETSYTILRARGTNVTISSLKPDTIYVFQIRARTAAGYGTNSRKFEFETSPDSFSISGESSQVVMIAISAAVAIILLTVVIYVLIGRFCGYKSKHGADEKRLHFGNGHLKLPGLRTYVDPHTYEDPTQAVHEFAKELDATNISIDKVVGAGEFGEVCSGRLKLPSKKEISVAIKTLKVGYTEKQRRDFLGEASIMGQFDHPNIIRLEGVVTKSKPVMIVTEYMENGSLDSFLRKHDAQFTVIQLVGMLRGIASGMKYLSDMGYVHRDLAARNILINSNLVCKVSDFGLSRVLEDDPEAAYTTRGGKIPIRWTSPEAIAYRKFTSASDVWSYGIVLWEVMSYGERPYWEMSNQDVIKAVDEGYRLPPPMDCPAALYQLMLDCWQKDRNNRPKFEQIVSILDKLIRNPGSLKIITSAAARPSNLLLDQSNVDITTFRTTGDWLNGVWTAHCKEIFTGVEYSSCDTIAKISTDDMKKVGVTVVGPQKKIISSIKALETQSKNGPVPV
Put plainly: Inhibition of human EPHA3 using myelin basic protein as substrate after 120 mins.

The next data set relates to HL-60. Put plainly: Cytotoxicity against human HL60 cells assessed as inhibition of cell growth after 48 to 72 hrs by alamar blue assay. The format is cell-based. (Alamar Blue is a resazurin reagent that responds to reducing activity.)
The nature of data set [5]: Cytotoxicity against human CRL8155 cells assessed as inhibition of cell growth after 48 to 72 hrs by alamar blue assay. The format is cell-based.
Data set [6] deals with Mitogen-activated protein kinase 14 (Homo sapiens, UniProt Q16539). Put plainly: Inhibition of human p38alpha using myelin basic protein as substrate after 180 mins.
The target of data set [7] is Tyrosine-protein kinase CSK (Homo sapiens, UniProt P41240). Put plainly: Inhibition of human CSK using Ac-KKKKEEIYFFF-OH as substrate after 180 mins.
The target of data set [8] is Tyrosine-protein kinase ABL1 (Homo sapiens, UniProt P00519). Put plainly: Inhibition of human ABL using EAIYAAPFAKKK-OH as substrate by phosphor imaging method.
For data set [9], the target named is Tyrosine-protein kinase Lck (Homo sapiens, UniProt P06239). Put plainly: Inhibition of human LCK using Ac-EIYGEFKKK-OH as substrate after 60 mins.
Data set [10] deals with Toxoplasma gondii. Put plainly: Antiparasitic activity against Toxoplasma gondii expressing CDPK1 Gly128Met mutant. The format is functional, organism-based.
Data set [11] is described as follows: Inhibition of Toxoplasma gondii CDPK1 using syntide-2 peptide as substrate after 90 mins by kinase glo-luciferase assay.

Usually IC50 stands for the point on the concentration scale where inhibition reaches its midpoint. A lower IC50 goes with higher potency. Broadly, the EC50 is the concentration needed to bring the measured effect to its halfway point. One may read the GI50 as the concentration at which growth is held to half of that of the control.

In [1], `Nc1ncnc2c1c(-c1ccc3cc(OCc4ccc(Cl)cc4)ccc3c1)nn2CC1CCNCC1` came in with an IC50 of 1.1 µM. The EC50 in the data set on Toxoplasma gondii [2] came to 0.46 µM.

With `CCOc1ccc2cc(-c3nn(CC4CCNCC4)c4ncnc(N)c34)ccc2c1`, the IC50 was > 10 µM in data set [3]; > 10 µM in data set [4]; > 10 µM against Ephrin type-A receptor 3; > 10 µM in [6]; 10 µM in data set [7]; > 10 µM in data set [8]. Besides, 0.96 µM corresponded to half-maximal inhibition in data set [9] (IC50). Moreover, the GI50 (in the data set on HL-60; in data set [5]) was > 10 µM in each case. In addition, the values for the EC50 in the data set on Toxoplasma gondii [2] and in the data set with Toxoplasma gondii [10] were 0.052 µM and 1 µM, respectively.

`CCOc1ccc2cc(-c3nn(CC4CCN(C(C)=O)CC4)c4ncnc(N)c34)ccc2c1`: the IC50 in data set [4] is > 10 µM; in data set [11] it was 0.011 µM.

Regarding `CCOc1ccc2cc(-c3nn(CC4CCN(C)CC4)c4ncnc(N)c34)ccc2c1`, the IC50 is > 10 µM in [3]; > 10 µM in data set [4]; > 10 µM against Ephrin type-A receptor 3; 0.0029 µM in data set [11]; > 10 µM in data set [6]; > 10 µM in data set [7]. In addition, the IC50 in [8] turned out to be 4.6 µM; in [9], 3.3 µM. In addition, the GI50 (in the data set with HL-60; in data set [5]) was > 10 µM throughout. Moreover, the 50% effective concentration (EC50) was determined as 0.14 µM in the data set with Toxoplasma gondii [2] and 1 µM in the data set with Toxoplasma gondii [10].

These data come from ChEMBL document CHEMBL2069256, “Development of Toxoplasma gondii calcium-dependent protein kinase 1 (TgCDPK1) inhibitors with potent anti-toxoplasma activity” (J Med Chem, 2012).
